Patent US20250230193A1, “CYCLIC COMPOUND HAVING SELECTIVE KRAS INHIBITORY EFFECT ON HRAS AND NRAS” (CHUGAI SEIYAKU KABUSHIKI KAISHA, priority 2022, published 2025)

Legend:
[1] = molecular target: GDP-bound NRAS wild-type protein (Homo sapiens, UniProt P01111); assay: Binding to NRAS by surface plasmon resonance (SPR), Single Cycle Kinetics; conditions: KD ratio, GDP-bound NRAS wild-type vs GDP-bound KRAS wild-type, SPR
[2] = molecular target: GDP-bound HRAS wild-type protein (Homo sapiens, UniProt P01112); assay: Binding to HRAS by surface plasmon resonance (SPR), Single Cycle Kinetics; conditions: KD ratio, GDP-bound HRAS wild-type vs GDP-bound KRAS wild-type, SPR
Sequence of GDP-bound HRAS wild-type protein (P01112 whole entry): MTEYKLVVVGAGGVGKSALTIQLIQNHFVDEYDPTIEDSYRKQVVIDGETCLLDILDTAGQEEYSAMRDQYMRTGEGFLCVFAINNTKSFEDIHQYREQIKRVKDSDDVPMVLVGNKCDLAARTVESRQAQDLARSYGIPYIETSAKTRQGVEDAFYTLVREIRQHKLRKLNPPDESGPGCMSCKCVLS

Sequence of GDP-bound NRAS wild-type protein (P01111 whole entry): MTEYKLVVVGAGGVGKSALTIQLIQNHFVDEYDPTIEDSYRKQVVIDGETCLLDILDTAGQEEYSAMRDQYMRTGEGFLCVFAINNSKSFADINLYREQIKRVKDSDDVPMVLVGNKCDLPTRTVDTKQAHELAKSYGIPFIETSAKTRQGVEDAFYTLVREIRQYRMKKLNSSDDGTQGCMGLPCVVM

SMILES	NRAS/KRAS (ratio of KD value with respect to NRAS to KD value with respect to KRAS) [1]	HRAS/KRAS (ratio of KD value with respect to HRAS to KD value with respect to KRAS) [2]
CCO[C@@H]1C[C@H]2C(=O)NC3(CCCC3)C(=O)N(C)[C@@H](C3CCCC3)C(=O)N(C)[C@H](C(=O)N(C)C)CC(=O)N(C)[C@@H](CC(C)C)C(=O)N[C@@H]([C@@H](C)CC)C(=O)N(C)CC(=O)N(C)[C@H]3C[C@@H](C)CCN(C3=O)[C@@H](Cc3ccc(C(F)(F)F)cc3)C(=O)N(C)CC(=O)N[C@@H](CCc3cc(F)c(C(F)(F)F)c(F)c3)C(=O)N2C1 [PP1017]	C (A compound having a KD ratio of 0.1 or more and less than 3 is denoted as C)	B (a compound having 3 or more and less than 10 is denoted as B)
CCO[C@@H]1C[C@H]2C(=O)NC3(CCC3)C(=O)N(C)[C@@H](C3CCCC3)C(=O)N(C)[C@H](C(=O)N(C)C)CC(=O)N(C)[C@@H](CC(C)C)C(=O)N[C@@H]([C@@H](C)CC)C(=O)N(C)CC(=O)N(C)[C@H]3C[C@@H](C)CCN(C3=O)[C@@H](Cc3ccc(C(F)(F)F)cc3)C(=O)N(C)CC(=O)N[C@@H](CCc3cc(F)c(C(F)(F)F)c(F)c3)C(=O)N2C1 [PP1018]	C (A compound having a KD ratio of 0.1 or more and less than 3 is denoted as C)	B (a compound having 3 or more and less than 10 is denoted as B)
CCO[C@@H]1C[C@H]2C(=O)NC3(CCC3)C(=O)N(C)[C@@H](C3CCCC3)C(=O)N(C)[C@H](C(=O)N(C)C)CC(=O)N(C)[C@@H](CC(C)C)C(=O)N[C@@H]([C@@H](C)CC)C(=O)N3CC[C@H]3C(=O)N(C)[C@H]3C[C@@H](C)CCN(C3=O)[C@@H](Cc3ccc(C(F)(F)F)cc3)C(=O)N(C)CC(=O)N[C@@H](CCc3cc(F)c(C(F)(F)F)c(F)c3)C(=O)N2C1 [PP1019]	C (A compound having a KD ratio of 0.1 or more and less than 3 is denoted as C)	B (a compound having 3 or more and less than 10 is denoted as B)
CCO[C@@H]1C[C@H]2C(=O)NC3(CCC3)C(=O)N(C)[C@@H](C3CCCC3)C(=O)N(C)[C@H](C(=O)N(C)C)CC(=O)N(C)[C@@H](CC)C(=O)N[C@@H]([C@@H](C)CC)C(=O)N(C)CC(=O)N(C)[C@H]3C[C@@H](C)CCN(C3=O)[C@@H](Cc3ccc(C(F)(F)F)cc3)C(=O)N(C)CC(=O)N[C@@H](CCc3cc(F)c(C(F)(F)F)c(F)c3)C(=O)N2C1 [PP1020]	C (A compound having a KD ratio of 0.1 or more and less than 3 is denoted as C)	B (a compound having 3 or more and less than 10 is denoted as B)
CCO[C@@H]1C[C@H]2C(=O)NC3(CCC3)C(=O)N(C)[C@@H](C3CCCC3)C(=O)N(C)[C@H](C(=O)N(C)C)CC(=O)N(C)[C@@H](CC)C(=O)N[C@@H]([C@@H](C)CC)C(=O)N3CC[C@H]3C(=O)N(C)[C@H]3C[C@@H](C)CCN(C3=O)[C@@H](Cc3ccc(C(F)(F)F)cc3)C(=O)N(C)CC(=O)N[C@@H](CCc3cc(F)c(C(F)(F)F)c(F)c3)C(=O)N2C1 [PP1021]	C (A compound having a KD ratio of 0.1 or more and less than 3 is denoted as C)	B (a compound having 3 or more and less than 10 is denoted as B)
CCO[C@@H]1C[C@H]2C(=O)NC3(CCCC3)C(=O)N(C)[C@@H](C3CCCC3)C(=O)N(C)[C@H](C(=O)N(C)C)CC(=O)N(C)[C@@H](CC)C(=O)N[C@@H]([C@@H](C)CC)C(=O)N(C)CC(=O)N(C)[C@H]3C[C@@H](C)CCN(C3=O)[C@@H](Cc3ccc(C(F)(F)F)cc3)C(=O)N(C)CC(=O)N[C@@H](CCc3cc(F)c(C(F)(F)F)c(F)c3)C(=O)N2C1 [PP1022]	C (A compound having a KD ratio of 0.1 or more and less than 3 is denoted as C)	B (a compound having 3 or more and less than 10 is denoted as B)
CCO[C@@H]1C[C@H]2C(=O)NC3(CCCC3)C(=O)N(C)[C@@H](C3CCCC3)C(=O)N(C)[C@H](C(=O)N3CCOCC3)CC(=O)N(C)[C@@H](CC(C)C)C(=O)N[C@@H]([C@@H](C)CC)C(=O)N(C)CC(=O)N(C)[C@H]3C[C@@H](C)CCN(C3=O)[C@@H](Cc3ccc(C(F)(F)F)cc3)C(=O)N(C)CC(=O)N[C@@H](CCc3cc(F)c(C(F)(F)F)c(F)c3)C(=O)N2C1 [PP1024]	B (a compound having 3 or more and less than 10 is denoted as B)	B (a compound having 3 or more and less than 10 is denoted as B)
CCO[C@@H]1C[C@H]2C(=O)NC3(CCC3)C(=O)N(C)[C@@H](C3CCCC3)C(=O)N(C)[C@H](C(=O)N3CCOCC3)CC(=O)N(C)[C@@H](CC(C)C)C(=O)N[C@@H]([C@@H](C)CC)C(=O)N(C)CC(=O)N(C)[C@H]3C[C@@H](C)CCN(C3=O)[C@@H](Cc3ccc(C(F)(F)F)cc3)C(=O)N(C)CC(=O)N[C@@H](CCc3cc(F)c(C(F)(F)F)c(F)c3)C(=O)N2C1 [PP1025]	C (A compound having a KD ratio of 0.1 or more and less than 3 is denoted as C)	B (a compound having 3 or more and less than 10 is denoted as B)
CCO[C@@H]1C[C@H]2C(=O)NC3(CCC3)C(=O)N(C)[C@@H](C3CCCC3)C(=O)N(C)[C@H](C(=O)N3CCOCC3)CC(=O)N(C)[C@@H](CC(C)C)C(=O)N[C@@H]([C@@H](C)CC)C(=O)N3CC[C@H]3C(=O)N(C)[C@H]3C[C@@H](C)CCN(C3=O)[C@@H](Cc3ccc(C(F)(F)F)cc3)C(=O)N(C)CC(=O)N[C@@H](CCc3cc(F)c(C(F)(F)F)c(F)c3)C(=O)N2C1 [PP1026]	B (a compound having 3 or more and less than 10 is denoted as B)	B (a compound having 3 or more and less than 10 is denoted as B)
CCO[C@@H]1C[C@H]2C(=O)NC3(CCC3)C(=O)N(C)[C@@H](C3CCCC3)C(=O)N(C)[C@H](C(=O)N3CCOCC3)CC(=O)N(C)[C@@H](CC)C(=O)N[C@@H]([C@@H](C)CC)C(=O)N(C)CC(=O)N(C)[C@H]3C[C@@H](C)CCN(C3=O)[C@@H](Cc3ccc(C(F)(F)F)cc3)C(=O)N(C)CC(=O)N[C@@H](CCc3cc(F)c(C(F)(F)F)c(F)c3)C(=O)N2C1 [PP1027]	C (A compound having a KD ratio of 0.1 or more and less than 3 is denoted as C)	B (a compound having 3 or more and less than 10 is denoted as B)
CCO[C@@H]1C[C@H]2C(=O)NC3(CCC3)C(=O)N(C)[C@@H](C3CCCC3)C(=O)N(C)[C@H](C(=O)N3CCOCC3)CC(=O)N(C)[C@@H](CC)C(=O)N[C@@H]([C@@H](C)CC)C(=O)N3CC[C@H]3C(=O)N(C)[C@H]3C[C@@H](C)CCN(C3=O)[C@@H](Cc3ccc(C(F)(F)F)cc3)C(=O)N(C)CC(=O)N[C@@H](CCc3cc(F)c(C(F)(F)F)c(F)c3)C(=O)N2C1 [PP1028]	B (a compound having 3 or more and less than 10 is denoted as B)	B (a compound having 3 or more and less than 10 is denoted as B)
CCO[C@@H]1C[C@H]2C(=O)NC3(CCCC3)C(=O)N(C)[C@@H](C3CCCC3)C(=O)N(C)[C@H](C(=O)N3CCOCC3)CC(=O)N(C)[C@@H](CC)C(=O)N[C@@H]([C@@H](C)CC)C(=O)N(C)CC(=O)N(C)[C@H]3C[C@@H](C)CCN(C3=O)[C@@H](Cc3ccc(C(F)(F)F)cc3)C(=O)N(C)CC(=O)N[C@@H](CCc3cc(F)c(C(F)(F)F)c(F)c3)C(=O)N2C1 [PP1029]	C (A compound having a KD ratio of 0.1 or more and less than 3 is denoted as C)	B (a compound having 3 or more and less than 10 is denoted as B)
CCO[C@@H]1C[C@H]2C(=O)NC3(CCC3)C(=O)N(C)[C@@H](C3CCCC3)C(=O)N(C)[C@H](C(=O)N3CCOCC3)CC(=O)N(CC)[C@@H](CC(C)C)C(=O)N[C@@H]([C@@H](C)CC)C(=O)N(C)CC(=O)N(C)[C@H]3C[C@@H](C)CCN(C3=O)[C@@H](Cc3ccc(C(F)(F)F)cc3)C(=O)N(C)CC(=O)N[C@@H](CCc3cc(F)c(C(F)(F)F)c(F)c3)C(=O)N2C1 [PP1030]	B (a compound having 3 or more and less than 10 is denoted as B)	B (a compound having 3 or more and less than 10 is denoted as B)
CCO[C@@H]1C[C@H]2C(=O)NC3(CCCC3)C(=O)N(C)[C@@H](C3CCCC3)C(=O)N(C)[C@H](C(=O)N(C)C)CC(=O)N(C)[C@@H](CC(C)C)C(=O)N[C@@H]([C@@H](C)CC)C(=O)N(C)CC(=O)N(C)[C@H]3CC(C)=CCN(C3=O)[C@@H](Cc3ccc(C(F)(F)F)cc3)C(=O)N(C)CC(=O)N[C@@H](CCc3cc(F)c(C(F)(F)F)c(F)c3)C(=O)N2C1 [PP1031]	C (A compound having a KD ratio of 0.1 or more and less than 3 is denoted as C)	C (A compound having a KD ratio of 0.1 or more and less than 3 is denoted as C)
CCO[C@@H]1C[C@H]2C(=O)NC3(CCC3)C(=O)N(C)[C@@H](C3CCCC3)C(=O)N(C)[C@H](C(=O)N(C)C)CC(=O)N(C)[C@@H](CC(C)C)C(=O)N[C@@H]([C@@H](C)CC)C(=O)N(C)CC(=O)N(C)[C@H]3CC(C)=CCN(C3=O)[C@@H](Cc3ccc(C(F)(F)F)cc3)C(=O)N(C)CC(=O)N[C@@H](CCc3cc(F)c(C(F)(F)F)c(F)c3)C(=O)N2C1 [PP1032]	C (A compound having a KD ratio of 0.1 or more and less than 3 is denoted as C)	C (A compound having a KD ratio of 0.1 or more and less than 3 is denoted as C)
